For 89 compounds, melting point results are on record in a melting point compilation (Tetko et al.; mined from patent text by program, amines drawn as free bases though some values may be those of a salt).

Broadly, the melting point is the temperature, or range, at which the solid turns liquid.

In turn, `Cc1nc(O)c2c(n1)CCN(c1nc(C)nc(O)c1[N+](=O)[O-])CC2` came in with a melting point above 200 °C.

`CCOC(=O)c1cccc([N+](=O)[O-])c1NCc1ccc(-c2ccccc2C#N)cc1` had a melting point of 119 to 120 °C.

`Fc1ccc(-c2nc(S)ncc2CCN2CCC(=Cc3ccccc3F)CC2)cc1` returned a melting point of 157 to 158 °C.

Compound `O=[N+]([O-])c1ccc(C2Nc3ccccc3-c3c([N+](=O)[O-])cnn32)cc1` (centres undefined) displayed a melting point of 190 to 191 °C.

`C=C(C)c1cccc(C(C)(C)N=C=O)c1` gave a melting point of 60 to 62 °C.

`CCOC(=O)c1cnn(-c2ccc(Oc3ccc(C)cc3O)cc2)c1`: the melting point fell in the range of 122 to 123 °C.

Compound `CSc1cc(C(=O)C(C#N)C(=O)C2CC2)ccc1C` (centres undefined) registered a melting point of 64.7 to 67.9 °C.

As to `Cc1c(C)n(CC(F)F)c2c(OCc3ccccc3)nncc12`, the melting point fell in the range of 128 to 131 °C.

Regarding `Cc1ccc(S(=O)(=O)NCC(CC(=O)Nc2ccc(C(=O)O)cc2)c2ccccc2)cc1` (centres undefined), the melting point was 225 to 227 °C.

Consider `CS(=O)(=O)c1ccc(-n2cc(-c3ccc(OC(F)(F)F)cc3)nc2-c2ccc(Cl)cc2)cc1`, for which the melting point lay within 95 to 97 °C.

In the case of `CCC(=N)Nc1ccccc1N1CCOCC1`, the melting point was determined as 114 °C.

In turn, `N#Cc1c(NC(=O)C2CCCCC2)sc(-c2ccccc2)c1Br` displayed a melting point of 167 to 168 °C.

Compound `Cc1cc(C2(C(F)(F)F)CC(Cl)=NO2)ccc1NC(=O)OC(C)(C)C` (centres undefined) displayed a melting point of 83 to 85 °C.

As for `Cc1cn(C2CCCCC2)c(=O)[nH]c1=S`, the melting point lay in the range of 177 to 178 °C.

Take `C=C1CCC2C3CCC4=C(CC=C(OC)C4)C3CCC12C` (centres undefined): the melting point fell in the range of 77 to 78 °C.

The compound `CCN(CC)CC1CCCCN1CCNC(=O)N1c2ccccc2NC(=O)c2ccccc21` (centres undefined) returned a melting point of 123 to 125 °C.

As to `Nc1ccccc1-n1sc(-c2ccccc2)cc1=O`, the melting point lay in the range of 145 to 146 °C.

`N#CCc1c[nH]c2cnc(-n3cncn3)cc12` came in with a melting point of 218 to 220 °C.

Compound `CCOC(=O)C1(C(=O)Nc2ccc(Br)cc2C)CC1` came in with a melting point of 89.5 to 90 °C.

Take `Nc1ncccc1-c1nc2ccc(-c3cn[nH]c3)nc2n1-c1ccc(CNC(=O)c2cccc(F)c2)cc1`: the melting point is 267 to 269 °C.

As for `Oc1ccc2c(c1)CN(Cc1ccc(Cl)cc1)CC2`, the melting point lay within 177 to 178 °C.

`NS(=O)(=O)c1cc(C(=O)c2ccc3c(c2)CCC3)ccc1Cl`: the melting point lay within 164 to 166 °C.

Turning to `Cc1ccc(CC2CCN(C(=O)C(=O)Nc3ccc(NS(C)(=O)=O)cc3)CC2)cc1`, the melting point is 179 to 181 °C.

Turning to `O=C(O)c1cccc(-c2nnc(-c3ccc(C(F)(F)F)cc3)o2)c1`, the melting point lay within 239 to 240 °C.

`CN(CCOc1ccc(CC2SC(=O)NC2=O)cc1)c1ncccn1` (centres undefined) registered a melting point of 150 to 151 °C.

The compound `CC(C)[C@H](NC(=O)OC(C)(C)C)C(=O)Nc1c(C(=O)CC(=O)Nc2nccs2)cccc1C(F)(F)F` returned a melting point of 120 °C.

Regarding `CCOC(=O)c1ccc(N2CCN(C(=O)C=Cc3cc(C(C)(C)C)c(O)c(C(C)(C)C)c3)CC2)cc1`, the melting point lay in the range of 147 to 150 °C.

The compound `CCc1noc(-c2cn(-c3cccc(Oc4ccccc4)c3)cn2)n1` displayed a melting point of 108 to 109 °C.

In turn, `Fc1c(F)c(F)c(CSc2nc3cnccc3[nH]2)c(F)c1F` came in with a melting point of 156 to 159 °C.

On to `CCCSc1ncc(CO)n1Cc1ccc(-c2ccccc2C(=O)O)cc1`, for which the melting point fell in the range of 194 to 195 °C.

`CCCCCCCCOc1ccc(-c2ncc(Br)cn2)c(F)c1F` had a melting point of 74.6 °C.

In the case of `NC(=S)Nc1cc(-c2ccccc2)nn1-c1ccccc1`, the melting point lay within 198 to 201 °C.

The compound `COC(=O)c1ccc(C(=O)OC)c(S(=O)(=O)NC(C)(C)C)c1` registered a melting point of 132 to 134 °C.

Regarding `COc1cc(C(C#Cc2cnc(N)nc2N)OC)cc(OC)c1OC` (centres undefined), the melting point was in the range of 184 to 186 °C.

`O=C(O)c1cnn(OCCCC2OCCO2)c1` came in with a melting point of 85 °C.

`COc1ccc(-c2ccc(C(=O)NO)cc2)cc1OC1CCCC1` returned a melting point of 181 to 183 °C.

The compound `COc1ccc(CCSCC2CCC2)cc1` gave a melting point of 52 °C.

Consider `COc1cc(C2c3cc4c(cc3C(NC3=CC(=O)N(Cc5ccc(NC(C)=O)cc5)C3=O)C3COC(=O)C23)OCO4)cc(OC)c1O[Si](C)(C)C(C)(C)C` (centres undefined), for which the melting point lay in the range of 177 to 179 °C.

Consider `CCOC(=O)CCn1c(-c2ccc(F)cc2)cc2ccccc2c1=O`, for which the melting point was in the range of 125 to 126 °C.

`CCOC(=O)c1n[nH]c2c(=O)[nH]c3cc(Cl)ccc3c(=O)c12` gave a melting point of 290 °C.

`CCN(CC)N(C(C)=O)c1nc2c(C)c3nc(N(C(C)=O)N(CC)CC)sc3cc2s1`: the melting point was in the range of 191 to 192 °C.

`CCO/C(=C\c1ccsc1)C(=O)O` came in with a melting point of 88 to 89 °C.

`CC(C)(C)c1cc(-c2nn(-c3ccccc3)c3ncccc23)cc(C(C)(C)C)c1O` had a melting point of 174 to 175 °C.

The compound `Cc1nnc(C=Cc2ccccc2OCC(O)CCl)s1` (centres undefined) registered a melting point of 168 to 170 °C.

`O=C(O)C1C(C=C(Cl)Cl)C12CCC2` (centres undefined) came in with a melting point of 122 to 128 °C.

As to `CCOP(=O)(CCCCCCOc1ccc(C(=O)O)cc1)OCC`, the melting point is 215 to 216 °C.

`c1ccc2c(c1)ccc1cnsc12` yielded a melting point of 52 °C.

`CC(=N)Nc1cccc(CNO)c1` displayed a melting point of 214 to 215 °C.

For the compound `COC(=O)CC(CSc1ccc2ccccc2c1)C(=O)O` (centres undefined), the melting point is 97 to 99 °C.

Take `CC1Nc2cccc3c(O)ccc(c23)S1(=O)=O` (centres undefined): the melting point was in the range of 245 to 246 °C.

Consider `CCOC(=O)C1=C(C)N=C(SCc2ccc(OC)cc2)N(C(=O)OCC)C1c1ccccc1SC` (centres undefined), for which the melting point was 87 to 89 °C.

With `CCOC(=O)c1c(C(F)(F)F)nc(C(F)F)c(CO)c1CC`, the melting point lay within 59.5 to 60.5 °C.

`CCN(C)C(=O)N1N=C2c3cc(F)ccc3OC[C@@H]2[C@@H]1c1ccccc1` (racemic) returned a melting point of 133 to 137 °C.

With `O=C1NC(=O)C(Cc2ccc(OCc3cccc(-c4ccccc4)c3)cc2)S1` (centres undefined), the melting point lay in the range of 109 to 111 °C.

Regarding `O=C(O)COc1ccc(CCNS(=O)(=O)c2ccccc2)cc1`, the melting point was in the range of 157 to 158 °C.

As to `O=[N+]([O-])c1ccc(Cl)c(N=Cc2ccccc2O)c1`, the melting point lay within 168 to 169 °C.

The compound `FC(F)(F)Oc1ccc(C=Cc2nc(CNc3ccc(CCCCn4ccnn4)cc3)co2)cc1` registered a melting point of 103 to 105 °C.

With `Oc1cccc(OCc2ccc3ccccc3n2)c1`, the melting point fell in the range of 151 to 153 °C.

As for `CC#CCOc1cc(Nc2cccc(F)c2F)ncn1`, the melting point was 148 °C.

In turn, `CCOCc1nc2c(N)nc(C)c(C)c2n1CCCC(N)=O` had a melting point of 199 to 200 °C.

For the compound `CC1(C)CCCC(=O)N1`, the melting point fell in the range of 128 to 131 °C.

In the case of `O=c1[nH]c2c(Cc3nnn[nH]3)c3ccccc3n2c2ccccc12`, the melting point lay in the range of 262 to 265 °C.

In turn, `Cc1ccccc1-c1nc(-c2ccccc2)c[nH]1` returned a melting point of 145 to 146 °C.

`Cn1cc(C(=O)O)c(=O)c2c3cc(N4CCC[C@H]4CNc4ccccc4)c(F)cc3ncc21` displayed a melting point of 250 °C.

In the case of `CS(=O)(=O)c1ccc(-c2cnn(-c3ccc(F)c(F)c3)c(=O)c2C#Cc2ccccc2)cc1`, the melting point was in the range of 211 to 213 °C.

`N#Cc1cc(=O)c2ccc(OCCCCl)cc2o1` had a melting point of 124 to 125 °C.

In turn, `Cc1cc(SCCc2ccc3sc(-c4ccc(C(F)(F)F)cc4)nc3c2)ccc1CCC(=O)O` yielded a melting point of 108 to 110 °C.

In turn, `COc1cccc(N2CCCN(/C(C)=C(/C#N)C(N)=S)CC2)c1` displayed a melting point of 129 to 131 °C.

In the case of `O=C(O)CCc1oc(-n2cccn2)nc1-c1ccc(Cl)cc1`, the melting point fell in the range of 171 to 172 °C.

On to `CCCc1nc2ccnn2c(O)c1Cc1ccc(-c2ccccc2C(=O)O)cc1`, for which the melting point fell in the range of 230 to 240 °C.

The compound `CCCCC1=NC2(CCCC2)C(=O)N1Cc1ccc(-c2ccccc2S(=O)(=O)Nc2noc(C)c2C)c(CN2CCCC2=O)c1` gave a melting point of 97 to 103 °C.

In turn, `CC(C)(C)C(=O)CNC(=O)c1nn(-c2ccc(F)cc2F)c2c1C1CCC2C1` (centres undefined) had a melting point of 42 to 43 °C.

Turning to `CCCOc1ccccc1-c1nc2c(C(N)=O)cccc2c(=O)[nH]1`, the melting point is 226 to 227 °C.

Consider `C=C(C)c1c(C)oc2c(NC(=O)c3c(Cl)cccc3Cl)cccc12`, for which the melting point is 147 to 148 °C.

For `N#CC1CN(c2c(F)cc3c(=O)c(C(=O)O)cn(C4CC4)c3c2F)C1`, the melting point was above 325 °C.

For the compound `c1ccc([C@@]23O[C@@H]2CCc2ccccc23)cc1`, the melting point lay in the range of 124 to 126 °C.

`O=C(Nc1ccccc1)N1CCC(CN2CCc3c([nH]c4ccccc34)C2)CC1` showed a melting point of 207 to 209 °C.

`CN(Cc1cc[nH]n1)C1CCCN(C(=O)c2ccc(Nc3nccc(Nc4ccc(F)cc4)n3)cc2)C1` (centres undefined) returned a melting point of 120 to 140 °C.

Compound `O=C1c2c(O)ccc(O)c2C(=O)c2c(NCCN3CCCCC3CO)ccc(NCCN3CCCCC3CO)c21` (centres undefined) returned a melting point of 208 to 210 °C.

Take `O=c1c2c(Cc3ccccc3C(F)(F)F)n[nH]c2c2cccnc2n1-c1cccc(OC(F)(F)F)c1`: the melting point was 252 to 255 °C.

For the compound `Cc1onc(-c2ccccc2)c1-c1ccc(S(=O)(=O)NC(=O)CN)cc1`, the melting point was in the range of 231 to 235 °C.

For `CC(C)(C)COC(=O)C#CC1C(C(=O)OC(C#N)c2cccc(Oc3ccccc3)c2)C1(C)C` (centres undefined), the melting point is 67 °C.

In turn, `CN=C(N)Nc1nc(CCCCNC(=NC#N)NC)cs1` had a melting point of 119 to 122 °C.

Take `COC1(c2ccco2)CC2=C(C=C1C(F)(F)F)N(C(=O)Nc1cccnc1)CC2` (centres undefined): the melting point was in the range of 92 to 94 °C.

As to `O=C(O)CCCCC(=NOCc1ccc(OCc2noc(-c3ccccc3)n2)cc1)c1ccccc1`, the melting point is 88 to 89 °C.

For `Cc1ccc(C2(c3ccccc3)OCc3c2cnc(C)c3OCC(=O)O)cc1` (centres undefined), the melting point came out at 223 °C.

In turn, `CCCCCCOC(=O)C=Nc1cc(Cl)ccc1C(=O)O` returned a melting point of 99 °C.

With `NC(=O)NC1CCCc2sc(Br)cc21` (centres undefined), the melting point was in the range of 206 to 210 °C.

In turn, `OC(CCl)(c1ccccc1)c1ccc(-c2ccccc2)cc1` (centres undefined) gave a melting point of 94 °C.
